Measurements as given in US6787327B2, “Methods for determining tyrosine-DNA phosphodiesterase activity” (Kelk Graduate of Applied Life Sciences, priority 2001, dated 2004).

Biological target: HTDPNΔ1-39 (recombinant human TDP) (Homo sapiens, UniProt Q9NUW8)
Settings: manganese chloride 5 mM or 10 mM; 5 mM substrate, 5 μg protein; absorbance at 415 nm; FIG. 7
From the text: In these assays, a chromogenic enzymatic assay system is used. In these systems, a substrate of smaller molecular weight (i.e., as compared with other substrates) containing one single base of thymidine, with chromogenic para-nitrophenyl group attached to the 3′-hydroxy group of deoxyribose was chosen. This compound mimics the aromatic groups of tyrosine in topo I-DNA complexes.
Upon the cleavage of the phosphodiester bond by TDP, the p-nitrophenol group mimicking the tyrosine residue in topo I-DNA complexes is released. The concentration of this group (i.e., a chromogen) is determined using spectroscopy. Thus, in this Example, enzymatic reactions contained 100 mM Tris HCl, pH 8.5, 100 mM NaCl, 1 mM DTT, 5 mM para-nitrophenyl thymidine-3′-phosphate and 5 μg of purified protein in a volume of 200 μl. For these reactions, 96-well plates were used. The amount of cleaved product (p-nitrophenol) was assessed by determining its absorbance at 415 nm (Ultramark Microplate Imaging System, BioRad).
During the development of this assay system, it was determined that the system may be optimized by the inclusion of manganese cation in the assay. […] Upon incubation of various TDP mutants and the substrate (para-nitrophenyl-thymidine-3′-phosphate) in the presence of manganese cations, the concentrations of the resulting para-nitrophenynol were calculated based on the optical density measured at 415 nm. […]

Sequence of HTDPNΔ1-39 (recombinant human TDP) (Q9NUW8 40-608, stated change not applied): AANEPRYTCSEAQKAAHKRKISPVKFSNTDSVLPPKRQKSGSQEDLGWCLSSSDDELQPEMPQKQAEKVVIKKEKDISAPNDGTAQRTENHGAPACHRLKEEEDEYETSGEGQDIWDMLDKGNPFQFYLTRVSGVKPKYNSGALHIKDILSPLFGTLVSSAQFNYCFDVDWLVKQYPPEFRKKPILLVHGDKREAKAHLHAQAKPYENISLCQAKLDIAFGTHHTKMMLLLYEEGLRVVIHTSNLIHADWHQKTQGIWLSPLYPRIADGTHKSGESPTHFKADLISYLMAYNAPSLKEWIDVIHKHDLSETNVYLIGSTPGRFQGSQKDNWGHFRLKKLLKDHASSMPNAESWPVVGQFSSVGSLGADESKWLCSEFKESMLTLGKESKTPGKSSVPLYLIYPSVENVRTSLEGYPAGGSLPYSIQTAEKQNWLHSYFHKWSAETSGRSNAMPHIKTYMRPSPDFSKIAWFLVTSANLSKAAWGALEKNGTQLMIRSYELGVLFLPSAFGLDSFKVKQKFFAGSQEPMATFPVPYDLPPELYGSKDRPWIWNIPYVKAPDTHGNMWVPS

Substance: manganese chloride
- increase of enzymatic activity on para-nitrophenyl thymidine-3′-phosphate, as compared to the activity in the presence of magnesium: 7 fold
- increase of enzymatic activity on para-nitrophenyl thymidine-3′-phosphate, as compared with the activity in the absence of cations: 17 fold
